Laboratory results published in publication PMC3577938 (Organic & biomolecular chemistry, 2013).

Legend:
Assay type in all cases: cell-based
human TLR8 = target: T1, human TLR8 (Homo sapiens, UniProt Q9NR97); experiment: Human TLR8-specific reporter gene assay; conditions: for Agonistic Activity (μM) TLR8: EC50 in human TLR8-specific reporter gene assay, Inactive = EC50 >100 μM; for TLR8-agonistic potency/activity (in words): hTLR8 reporter gene assay
T1 sequence (Q9NR97 27-1041): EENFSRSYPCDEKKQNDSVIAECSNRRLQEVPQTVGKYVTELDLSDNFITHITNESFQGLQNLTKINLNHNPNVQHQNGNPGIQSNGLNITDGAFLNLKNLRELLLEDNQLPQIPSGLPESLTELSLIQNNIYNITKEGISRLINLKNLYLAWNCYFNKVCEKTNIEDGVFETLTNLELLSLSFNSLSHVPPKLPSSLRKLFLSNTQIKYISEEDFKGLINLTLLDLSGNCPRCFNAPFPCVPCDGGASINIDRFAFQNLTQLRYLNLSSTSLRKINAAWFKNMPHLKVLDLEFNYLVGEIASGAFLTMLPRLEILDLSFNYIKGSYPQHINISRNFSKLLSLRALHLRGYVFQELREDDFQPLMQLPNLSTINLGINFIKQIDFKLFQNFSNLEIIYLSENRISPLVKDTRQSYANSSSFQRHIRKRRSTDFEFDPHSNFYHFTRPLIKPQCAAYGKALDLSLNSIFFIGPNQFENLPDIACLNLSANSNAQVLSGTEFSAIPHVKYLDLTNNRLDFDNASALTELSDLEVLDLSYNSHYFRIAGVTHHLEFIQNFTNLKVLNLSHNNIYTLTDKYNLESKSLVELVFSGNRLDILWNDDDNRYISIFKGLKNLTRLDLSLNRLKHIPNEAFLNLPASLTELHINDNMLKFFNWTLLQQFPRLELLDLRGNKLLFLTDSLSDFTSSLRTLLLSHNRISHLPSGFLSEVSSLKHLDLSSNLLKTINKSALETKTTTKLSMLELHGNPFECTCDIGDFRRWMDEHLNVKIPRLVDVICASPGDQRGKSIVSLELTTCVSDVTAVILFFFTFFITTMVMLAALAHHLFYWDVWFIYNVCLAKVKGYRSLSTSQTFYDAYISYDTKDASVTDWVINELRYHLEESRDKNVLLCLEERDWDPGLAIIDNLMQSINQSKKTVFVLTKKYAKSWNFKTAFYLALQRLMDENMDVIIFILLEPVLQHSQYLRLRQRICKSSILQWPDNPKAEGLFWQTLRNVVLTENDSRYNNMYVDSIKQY

human TLR7 = target: T2, human TLR7 (Homo sapiens, UniProt Q9NYK1); experiment: Human TLR7-specific reporter gene assay; conditions: for Agonistic Activity (μM) TLR7: EC50 in human TLR7-specific reporter gene assay, Inactive = EC50 >100 μM
T2 sequence (Q9NYK1 27-1049): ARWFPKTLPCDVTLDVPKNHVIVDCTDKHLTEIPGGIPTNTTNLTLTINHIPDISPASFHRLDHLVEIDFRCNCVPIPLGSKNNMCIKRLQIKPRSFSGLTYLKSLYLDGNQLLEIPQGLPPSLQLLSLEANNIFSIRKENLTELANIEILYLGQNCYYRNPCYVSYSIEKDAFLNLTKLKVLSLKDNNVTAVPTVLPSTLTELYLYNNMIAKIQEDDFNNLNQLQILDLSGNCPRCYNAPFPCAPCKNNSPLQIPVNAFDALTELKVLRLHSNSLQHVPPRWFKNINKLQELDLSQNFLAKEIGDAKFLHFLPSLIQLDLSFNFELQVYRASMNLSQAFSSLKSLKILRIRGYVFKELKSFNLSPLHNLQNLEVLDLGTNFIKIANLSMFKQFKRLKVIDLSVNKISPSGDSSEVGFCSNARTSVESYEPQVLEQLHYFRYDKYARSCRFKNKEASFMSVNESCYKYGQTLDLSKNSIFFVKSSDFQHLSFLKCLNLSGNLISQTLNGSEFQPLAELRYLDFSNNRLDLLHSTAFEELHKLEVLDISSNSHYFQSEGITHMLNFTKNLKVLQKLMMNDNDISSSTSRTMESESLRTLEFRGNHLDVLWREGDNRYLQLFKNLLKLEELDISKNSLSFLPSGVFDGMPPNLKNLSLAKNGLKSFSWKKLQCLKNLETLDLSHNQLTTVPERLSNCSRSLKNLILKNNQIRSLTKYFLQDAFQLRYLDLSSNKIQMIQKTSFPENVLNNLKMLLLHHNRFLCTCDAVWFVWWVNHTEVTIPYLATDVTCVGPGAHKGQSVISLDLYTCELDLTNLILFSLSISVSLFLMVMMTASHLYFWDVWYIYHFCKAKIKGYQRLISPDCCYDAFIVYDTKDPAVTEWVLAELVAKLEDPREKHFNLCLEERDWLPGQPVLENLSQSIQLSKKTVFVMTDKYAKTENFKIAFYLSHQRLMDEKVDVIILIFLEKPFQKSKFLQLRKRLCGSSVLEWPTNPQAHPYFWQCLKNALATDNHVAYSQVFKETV

human TLR7 or human TLR8 = conditions: primary TLR8/TLR7 reporter gene assays, receptor not given

Row | Structure (SMILES) | Agonistic Activity (μM) TLR8 (human TLR8) | Agonistic Activity (μM) TLR7 (human TLR7) | also measured
1 | CCCc1nc2c(N)nc3ccc(N=[N+]=[N-])cc3c2s1 [Compound 11, 8-azido-2-propylthiazolo[4,5-c]quinolin-4-amine] | – | – | agonistic activity (in words) (human TLR7 or human TLR8): inactive
2 | CCCCCCCCCCCCCCCCNc1nc2ccccc2c2sc(CCC)nc12 [Compound 15c, N-hexadecyl-2-propylthiazolo[4,5-c]quinolin-4-amine] | Inactive | Inactive | –
3 | CCCc1nc2c(NS(=O)(=O)CC)nc3ccccc3c2s1 [Compound 15s, N-(2-propylthiazolo[4,5-c]quinolin-4-yl)ethanesulfonamide] | Inactive | Inactive | –
4 | CCCc1nc2c(N)nc3ccc(-n4cc([Si](C)(C)C)nn4)cc3c2s1 [Compound 12f, 2-propyl-8-(4-(trimethylsilyl)-1H-1,2,3-triazol-1-yl)thiazolo[4,5-c]quinolin-4-amine] | – | Inactive | –
5 | CC(C)c1nc2c(N)nc3ccccc3c2s1 [Compound 8i, 2-isopropylthiazolo[4,5-c]quinolin-4-amine] | – | – | reduction in TLR8-agonistic potency (human TLR8; isopropyl at C2, fold reduction): approximately ten-fold; attenuation of activity in TLR7-specific reporter gene assays (human TLR7; isopropyl at C2, fold attenuation): about two-fold
6 | CCCc1nc2c(NC(=O)OC)nc3ccccc3c2s1 [Compound 15m, methyl (2-propylthiazolo[4,5-c]quinolin-4-yl)carbamate] | Weak | Inactive | –
7 | CCCc1nc2c(NC(=O)CCN=[N+]=[N-])nc3ccccc3c2s1 [Compound 15k, 3-azido-N-(2-propylthiazolo[4,5-c]quinolin-4-yl)propanamide] | – | Inactive | –
8 | C#CCCC(=O)Nc1nc2ccccc2c2sc(CCC)nc12 [Compound 15l, N-(2-propylthiazolo[4,5-c]quinolin-4-yl)pent-4-ynamide] | – | Inactive | –
9 | CCCc1nc2c(N)nc3ccc(N)cc3c2s1 [Compound 10, 2-propylthiazolo[4,5-c]quinoline-4,8-diamine] | – | – | agonistic activity (in words) (human TLR7 or human TLR8): attenuated activity relative to 8c
10 | CCCCCc1nc2c(N)nc3ccccc3c2s1 [Compound 8e, 2-pentylthiazolo[4,5-c]quinolin-4-amine] | – | – | TLR8-agonistic potency/activity (in words) (human TLR8): attenuation of potency
11 | CCCc1nc2c(NC(C)=O)nc3ccccc3c2s1 [Compound 15e, N-(2-propylthiazolo[4,5-c]quinolin-4-yl)acetamide] | – | Inactive | TLR8-agonistic potency/activity (in words) (human TLR8): virtually inactive
12 | CCCc1nc2c(NS(C)(=O)=O)nc3ccccc3c2s1 [Compound 15r, N-(2-propylthiazolo[4,5-c]quinolin-4-yl)methanesulfonamide] | – | Inactive | –
13 | CCCc1nc2c(NS(=O)(=O)c3ccc(C)cc3)nc3ccccc3c2s1 [Compound 15v, 4-methyl-N-(2-propylthiazolo[4,5-c]quinolin-4-yl)benzenesulfonamide] | Inactive | Inactive | –
14 | Nc1nc2ccccc2c2sc(CCCC(F)(F)F)nc12 [Compound 8q, 2-(4,4,4-trifluorobutyl)thiazolo[4,5-c]quinolin-4-amine] | – | – | TLR8-agonistic potency/activity (in words) (human TLR8): decrease in potency

Now from value to molecule, other results behind:

Row | Agonistic Activity (μM) TLR8 (human TLR8) | Agonistic Activity (μM) TLR7 (human TLR7) | Structure (SMILES) | also measured
15 | Inactive | Inactive | CCCc1nc2c(NS(=O)(=O)CCC)nc3ccccc3c2s1 [Compound 15t, N-(2-propylthiazolo[4,5-c]quinolin-4-yl)propane-1-sulfonamide] | –
16 | Inactive | Inactive | CCCCCc1cn(-c2ccc3nc(N)c4nc(CCC)sc4c3c2)nn1 [Compound 12e, 8-(4-pentyl-1H-1,2,3-triazol-1-yl)-2-propylthiazolo[4,5-c]quinolin-4-amine] | –
17 | Inactive | Inactive | CCCc1nc2c(N)nc3ccc(-n4cc(CO)nn4)cc3c2s1 [Compound 12b, (1-(4-amino-2-propylthiazolo[4,5-c]quinolin-8-yl)-1H-1,2,3-triazol-4-yl)methanol] | –
18 | Inactive | Inactive | CCCCS(=O)(=O)Nc1nc2ccccc2c2sc(CCC)nc12 [Compound 15u, N-(2-propylthiazolo[4,5-c]quinolin-4-yl)butane-1-sulfonamide] | –
19 | Inactive | Inactive | CCCCCCCc1nc2c(N)nc3ccccc3c2s1 [Compound 8g, 2-heptylthiazolo[4,5-c]quinolin-4-amine] | –
20 | Inactive | Inactive | CCCc1nc2c(N)nc3ccc(-n4cc(C(C)(C)O)nn4)cc3c2s1 [Compound 12a, 2-(1-(4-amino-2-propylthiazolo[4,5-c]quinolin-8-yl)-1H-1,2,3-triazol-4-yl)propan-2-ol] | –
21 | Inactive | Inactive | CCCc1nc2c(NC(=O)OCC)nc3ccccc3c2s1 [Compound 15n, ethyl (2-propylthiazolo[4,5-c]quinolin-4-yl)carbamate] | –
22 | Inactive | Inactive | CCCc1cn(-c2ccc3nc(N)c4nc(CCC)sc4c3c2)nn1 [Compound 12d, 2-propyl-8-(4-propyl-1H-1,2,3-triazol-1-yl)thiazolo[4,5-c]quinolin-4-amine] | –
23 | Inactive | Inactive | CCCc1nc2c(N)nc3ccc(-n4ccnn4)cc3c2s1 [Compound 12g, 2-propyl-8-(1H-1,2,3-triazol-1-yl)thiazolo[4,5-c]quinolin-4-amine] | –
24 | Inactive | Inactive | CCCCCCCCCc1nc2c(N)nc3ccccc3c2s1 [Compound 8h, 2-nonylthiazolo[4,5-c]quinolin-4-amine] | –
25 | Inactive^a | Inactive | CCCCCCc1nc2c(N)nc3ccccc3c2s1 [Compound 8f, 2-hexylthiazolo[4,5-c]quinolin-4-amine] | –
26 | Inactive | Inactive | CCCCCCCCOC(=O)Nc1nc2ccccc2c2sc(CCC)nc12 [Compound 15p, octyl (2-propylthiazolo[4,5-c]quinolin-4-yl)carbamate] | –
27 | Inactive | Inactive | CCCCOC(=O)Nc1nc2ccccc2c2sc(CCC)nc12 [Compound 15o, butyl (2-propylthiazolo[4,5-c]quinolin-4-yl)carbamate] | –
28 | Inactive | Inactive | CCCc1nc2c(N)nc3ccc(-n4cc(-c5ccccc5)nn4)cc3c2s1 [Compound 12c, 8-(4-phenyl-1H-1,2,3-triazol-1-yl)-2-propylthiazolo[4,5-c]quinolin-4-amine] | –
